System: CD4+ CD25− T cells
Test: DNA microarray transcriptional profile of T cells activated in Th17-priming conditions
Format: cell-based, mouse
Conditions: 10 nM

O=C(CC1NCCCC1O)Cn1cnc2cc(Br)c(Cl)cc2c1=O (racemic) [HF, 7-bromo-6-chloro-3-[3-(3-hydroxy-2-piperidinyl)-2-oxopropyl]-4(3H)-quinazolinone]
annotated genes differentially expressed at both time points in HF- versus MAZ1310-treated cells (3 and 6 hours): 81 | Aars transcript fold increase, HF vs. MAZ1310 (3 hr, Th17-priming conditions): 2.7 ± 0.4 fold | Aff1 transcript fold increase, HF vs. MAZ1310 (3 hr, Th17-priming conditions): 2.3 ± 0.4 fold | Aldh18a1 transcript fold increase, HF vs. MAZ1310 (3 hr, Th17-priming conditions): 2.1 ± 0.5 fold | Asns transcript fold increase, HF vs. MAZ1310 (3 hr, Th17-priming conditions): 6.1 ± 1.2 fold | Atf3 transcript fold increase, HF vs. MAZ1310 (3 hr, Th17-priming conditions): 3.0 ± 0.1 fold | Atf5 transcript fold increase, HF vs. MAZ1310 (3 hr, Th17-priming conditions): 2.4 ± 0.1 fold | Cars transcript fold increase, HF vs. MAZ1310 (3 hr, Th17-priming conditions): 2.2 ± 0.4 fold | Cd274 transcript fold increase, HF vs. MAZ1310 (3 hr, Th17-priming conditions): 2.1 ± 0.2 fold | Cebpb transcript fold increase, HF vs. MAZ1310 (3 hr, Th17-priming conditions): 3.9 ± 0.5 fold | Cebpg transcript fold increase, HF vs. MAZ1310 (3 hr, Th17-priming conditions): 2.5 ± 0.5 fold | Chd2 transcript fold increase, HF vs. MAZ1310 (3 hr, Th17-priming conditions): 2.2 ± 0.3 fold | Cldn12 transcript fold increase, HF vs. MAZ1310 (3 hr, Th17-priming conditions): 3.2 ± 0.7 fold | Clic4 transcript fold increase, HF vs. MAZ1310 (3 hr, Th17-priming conditions): 2.4 ± 0.2 fold | Cth transcript fold increase, HF vs. MAZ1310 (3 hr, Th17-priming conditions): 2.2 ± 0.7 fold | Cxcl10 transcript fold increase, HF vs. MAZ1310 (3 hr, Th17-priming conditions): 2.1 ± 0.3 fold | D8Ertd56e transcript fold increase, HF vs. MAZ1310 (3 hr, Th17-priming conditions): 2.1 ± 0.3 fold | Ddit3 transcript fold increase, HF vs. MAZ1310 (3 hr, Th17-priming conditions): 5.6 ± 1.1 fold | Eif4Ebp1 transcript fold increase, HF vs. MAZ1310 (3 hr, Th17-priming conditions): 6.8 ± 1.8 fold | Gpt2 transcript fold increase, HF vs. MAZ1310 (3 hr, Th17-priming conditions): 10.0 ± 1.2 fold | Herpud1 transcript fold increase, HF vs. MAZ1310 (3 hr, Th17-priming conditions): 2.4 ± 0.3 fold | Icam1 transcript fold increase, HF vs. MAZ1310 (3 hr, Th17-priming conditions): 2.0 ± 0.1 fold | Irf1 transcript fold increase, HF vs. MAZ1310 (3 hr, Th17-priming conditions): 2.0 ± 0.3 fold | Lars transcript fold increase, HF vs. MAZ1310 (3 hr, Th17-priming conditions): 2.3 ± 0.3 fold | Mpa2l transcript fold increase, HF vs. MAZ1310 (3 hr, Th17-priming conditions): 2.3 ± 0.3 fold | Ncoa7 transcript fold increase, HF vs. MAZ1310 (3 hr, Th17-priming conditions): 3.0 ± 0.3 fold | Nfkbiz transcript fold increase, HF vs. MAZ1310 (3 hr, Th17-priming conditions): 2.0 ± 0.3 fold | Pck2 transcript fold increase, HF vs. MAZ1310 (3 hr, Th17-priming conditions): 4.9 ± 0.8 fold | Pdcd1lg2 transcript fold increase, HF vs. MAZ1310 (3 hr, Th17-priming conditions): 3.2 ± 0.7 fold | Phgdh transcript fold increase, HF vs. MAZ1310 (3 hr, Th17-priming conditions): 3.8 ± 0.9 fold | Psat1 transcript fold increase, HF vs. MAZ1310 (3 hr, Th17-priming conditions): 2.1 ± 0.5 fold | Psph transcript fold increase, HF vs. MAZ1310 (3 hr, Th17-priming conditions): 3.5 ± 0.4 fold | Pvr transcript fold increase, HF vs. MAZ1310 (3 hr, Th17-priming conditions): 2.0 ± 0.3 fold | Pycr1 transcript fold increase, HF vs. MAZ1310 (3 hr, Th17-priming conditions): 4.6 ± 0.7 fold | Pycs transcript fold increase, HF vs. MAZ1310 (3 hr, Th17-priming conditions): 2.1 ± 0.2 fold | Sars1 transcript fold increase, HF vs. MAZ1310 (3 hr, Th17-priming conditions): 2.0 ± 0.3 fold | Sesn2 transcript fold increase, HF vs. MAZ1310 (3 hr, Th17-priming conditions): 2.6 ± 0.3 fold | Slamf7 transcript fold increase, HF vs. MAZ1310 (3 hr, Th17-priming conditions): 2.2 ± 0.4 fold | Slc1a4 transcript fold increase, HF vs. MAZ1310 (3 hr, Th17-priming conditions): 3.2 ± 0.9 fold | Slc5a9 transcript fold increase, HF vs. MAZ1310 (3 hr, Th17-priming conditions): 2.4 ± 0.3 fold | Slc7a3 transcript fold increase, HF vs. MAZ1310 (3 hr, Th17-priming conditions): 2.0 ± 0.2 fold | Slc14a1 transcript fold increase, HF vs. MAZ1310 (3 hr, Th17-priming conditions): 2.0 ± 0.1 fold | Trib3 transcript fold increase, HF vs. MAZ1310 (3 hr, Th17-priming conditions): 7.1 ± 2.0 fold | Trim12 transcript fold increase, HF vs. MAZ1310 (3 hr, Th17-priming conditions): 2.4 ± 0.1 fold | Vegfa transcript fold increase, HF vs. MAZ1310 (3 hr, Th17-priming conditions): 3.2 ± 0.2 fold | Xist transcript fold increase, HF vs. MAZ1310 (3 hr, Th17-priming conditions): 3.5 ± 1.7 fold | Aars transcript fold increase, HF vs. MAZ1310 (6 hr, Th17-priming conditions): 2.6 ± 0.2 fold | Aff1 transcript fold increase, HF vs. MAZ1310 (6 hr, Th17-priming conditions): 2.6 ± 0.3 fold | Aldh18a1 transcript fold increase, HF vs. MAZ1310 (6 hr, Th17-priming conditions): 2.7 ± 0.2 fold | Asns transcript fold increase, HF vs. MAZ1310 (6 hr, Th17-priming conditions): 7.1 ± 0.5 fold | Atf3 transcript fold increase, HF vs. MAZ1310 (6 hr, Th17-priming conditions): 3.2 ± 0.5 fold | Atf5 transcript fold increase, HF vs. MAZ1310 (6 hr, Th17-priming conditions): 8.9 ± 1.0 fold | Cars transcript fold increase, HF vs. MAZ1310 (6 hr, Th17-priming conditions): 2.2 ± 0.3 fold | Cd274 transcript fold increase, HF vs. MAZ1310 (6 hr, Th17-priming conditions): 2.0 ± 0.1 fold | Cebpb transcript fold increase, HF vs. MAZ1310 (6 hr, Th17-priming conditions): 8.0 ± 0.2 fold | Cebpg transcript fold increase, HF vs. MAZ1310 (6 hr, Th17-priming conditions): 3.1 ± 0.5 fold | Chd2 transcript fold increase, HF vs. MAZ1310 (6 hr, Th17-priming conditions): 2.5 ± 0.5 fold | Cldn12 transcript fold increase, HF vs. MAZ1310 (6 hr, Th17-priming conditions): 4.6 ± 0.5 fold | Clic4 transcript fold increase, HF vs. MAZ1310 (6 hr, Th17-priming conditions): 2.8 ± 0.2 fold | Cth transcript fold increase, HF vs. MAZ1310 (6 hr, Th17-priming conditions): 16.0 ± 1.6 fold | Cxcl10 transcript fold increase, HF vs. MAZ1310 (6 hr, Th17-priming conditions): 2.1 ± 0.1 fold | Ddit3 transcript fold increase, HF vs. MAZ1310 (6 hr, Th17-priming conditions): 5.0 ± 0.7 fold | Eif4Ebp1 transcript fold increase, HF vs. MAZ1310 (6 hr, Th17-priming conditions): 5.3 ± 0.3 fold | Gpt2 transcript fold increase, HF vs. MAZ1310 (6 hr, Th17-priming conditions): 16.7 ± 2.2 fold | Herpud1 transcript fold increase, HF vs. MAZ1310 (6 hr, Th17-priming conditions): 2.7 ± 0.1 fold | Icam1 transcript fold increase, HF vs. MAZ1310 (6 hr, Th17-priming conditions): 2.8 ± 0.3 fold | Irf1 transcript fold increase, HF vs. MAZ1310 (6 hr, Th17-priming conditions): 2.6 ± 0.2 fold | Lars transcript fold increase, HF vs. MAZ1310 (6 hr, Th17-priming conditions): 2.1 ± 0.0 fold | Mpa2l transcript fold increase, HF vs. MAZ1310 (6 hr, Th17-priming conditions): 7.3 ± 1.7 fold | Ncoa7 transcript fold increase, HF vs. MAZ1310 (6 hr, Th17-priming conditions): 3.2 ± 0.5 fold | Nfkbiz transcript fold increase, HF vs. MAZ1310 (6 hr, Th17-priming conditions): 1.9 ± 0.3 fold | Pck2 transcript fold increase, HF vs. MAZ1310 (6 hr, Th17-priming conditions): 7.4 ± 0.9 fold | Pdcd1lg2 transcript fold increase, HF vs. MAZ1310 (6 hr, Th17-priming conditions): 2.5 ± 0.3 fold | Phgdh transcript fold increase, HF vs. MAZ1310 (6 hr, Th17-priming conditions): 4.2 ± 0.3 fold | Psat1 transcript fold increase, HF vs. MAZ1310 (6 hr, Th17-priming conditions): 2.6 ± 0.0 fold | Psph transcript fold increase, HF vs. MAZ1310 (6 hr, Th17-priming conditions): 3.4 ± 0.3 fold | Pvr transcript fold increase, HF vs. MAZ1310 (6 hr, Th17-priming conditions): 2.0 ± 0.1 fold | Pycr1 transcript fold increase, HF vs. MAZ1310 (6 hr, Th17-priming conditions): 6.6 ± 0.4 fold | Pycs transcript fold increase, HF vs. MAZ1310 (6 hr, Th17-priming conditions): 2.3 ± 0.1 fold | Sars1 transcript fold increase, HF vs. MAZ1310 (6 hr, Th17-priming conditions): 2.3 ± 0.1 fold | Sesn2 transcript fold increase, HF vs. MAZ1310 (6 hr, Th17-priming conditions): 2.3 ± 0.2 fold | Slamf7 transcript fold increase, HF vs. MAZ1310 (6 hr, Th17-priming conditions): 2.1 ± 0.2 fold | Slc1a4 transcript fold increase, HF vs. MAZ1310 (6 hr, Th17-priming conditions): 4.6 ± 0.4 fold | Slc5a9 transcript fold increase, HF vs. MAZ1310 (6 hr, Th17-priming conditions): 5.7 ± 0.6 fold | Slc7a3 transcript fold increase, HF vs. MAZ1310 (6 hr, Th17-priming conditions): 6.5 ± 0.9 fold | Slc14a1 transcript fold increase, HF vs. MAZ1310 (6 hr, Th17-priming conditions): 6.6 ± 0.4 fold | Trib3 transcript fold increase, HF vs. MAZ1310 (6 hr, Th17-priming conditions): 18.5 ± 8.5 fold | Trim12 transcript fold increase, HF vs. MAZ1310 (6 hr, Th17-priming conditions): 4.9 ± 0.7 fold | Vegfa transcript fold increase, HF vs. MAZ1310 (6 hr, Th17-priming conditions): 5.8 ± 0.5 fold | Xist transcript fold increase, HF vs. MAZ1310 (6 hr, Th17-priming conditions): 2.1 ± 0.7 fold

Reference: US20090123389A1, “Methods for modulating Th17 cell development in the treatment and prevention of cellulite” (priority 2007, published 2009)
